Laboratory results taken from paper PMC11537999, “Identification of human pregnane X receptor antagonists utilizing a high-throughput screening platform” (Frontiers in Pharmacology, 2024).

Tests used:
hPXR [1] = molecular target: T1, hPXR (Homo sapiens, UniProt O75469); assay: PXR luciferase reporter gene assay (qHTS antagonist mode, rifampicin co-treatment) in HepG2-CYP3A4-hPXR cells; assay type: cell-based; settings: 2 μM rifampicin, used as treatment concentration in HepaRG cells
T1 construct: expressed in transfected cells; provided by Dr. Taosheng Chen, St. Jude
T1 sequence (O75469 1-434): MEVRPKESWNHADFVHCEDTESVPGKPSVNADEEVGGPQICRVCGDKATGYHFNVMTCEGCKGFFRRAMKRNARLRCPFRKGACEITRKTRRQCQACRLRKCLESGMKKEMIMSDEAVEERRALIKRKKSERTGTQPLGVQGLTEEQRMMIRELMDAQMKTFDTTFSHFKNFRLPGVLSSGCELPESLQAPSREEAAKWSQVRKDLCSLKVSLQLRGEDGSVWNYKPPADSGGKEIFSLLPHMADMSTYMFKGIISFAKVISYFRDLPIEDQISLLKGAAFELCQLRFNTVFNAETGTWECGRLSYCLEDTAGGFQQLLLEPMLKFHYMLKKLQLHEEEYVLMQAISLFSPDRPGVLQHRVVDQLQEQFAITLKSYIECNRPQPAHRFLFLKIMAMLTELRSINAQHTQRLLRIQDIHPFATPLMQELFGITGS
Description: HepG2 cells stably transfected with a CYP3A4-luc promoter construct and hPXR expression plasmid were provided by Dr. Taosheng Chen (Department of Chemical Biology and Therapeutics, St. Jude Children’s Research Hospital) ([Lin et al., 2008]). Cells were thawed in EMEM (ATCC, Rockville, Maryland), supplemented with 10% Hyclone FBS (GE Healthcare Life Sciences, Logan, Utah) and 100 U/mL of Penicillin and 100 μg/mL of Streptomycin (Invitrogen, Carlsbad, CA) and kept in an incubator at 37°C and 5% CO2. To culture these HepG2-CYP3A4-hPXR cells, 500 μg/mL of Geneticin (GIBCO, Gaithersburg, MD) was added to the thawing media.
(§1) HepG2-CYP3A4-hPXR cells were dispensed into tissue culture treated 1536-well white assay plates (Greiner Bio-One North America, Monroe, NC) using a Multidrop Combi (Thermo Fisher Scientific Inc., Waltham, Massachusetts) at 2,500 cells/4 µL/well. The cell suspension was prepared using new assay media, which contained phenol red-free DMEM (GIBCO), 5% charcoal/dextran-treated FBS (Invitrogen), 1 mM sodium pyruvate (Invitrogen), 2 mM L-Glutamine (Invitrogen), and 100 U/mL of Penicillin and 100 μg/mL of Streptomycin (Invitrogen). All plates were then incubated for 4 h in a 37°C and 5% CO2 incubator. […] In the primary screen, each compound was tested at 7 concentrations ranging from 46 μM to 1.5 nM. 1 μL of rifampicin, a known PXR agonist, was also co-treated in each well, generating a final concentration of 2 μM, using a Flying Reagent Dispenser (Aurora Discovery, Carlsbad, California). All assay plates were placed in an incubator at 37°C with 5% CO2 for 23 h. Following the incubation period, 1 µL of CellTiter-Fluor reagent (Promega, Madison, Wisconsin) was added to each well and all assay plates were placed back into the incubator set at 37°C and 5% CO2 for 1 h. Fluorescence intensity at 540 nm was measured following excitation at 405 nm using a ViewLux plate reader (Perkin Elmer, Shelton, Connecticut), in order to assess cell viability following treatment. Directly after the fluorescent read, 4 μL of ONE-Glo Luciferase reagent (Promega, Madison, Wisconsin) was added to each well using a Flying Reagent Dispenser, and plates were left to sit at room temperature for 30 min. The luminescence of each plate was then measured using the ViewLux plate reader and data were expressed as relative luminescence units. Gross assay performance was assessed by calculating quality metrics, such as coefficient of variance (CV), signal-to-background ratio (S/B), and Z′ factor, a measure of statistical effect size frequently used to judge whether an assay can be scaled up to a large high-throughput screen ([Zhang et al., 1999]).
Data analysis was completed using a previously described protocol ([Huang et al., 2016]). […] Normalized percent activity for all test compounds was determined using the following equation: % activity = [(V compound - V DMSO)/(V DMSO–V pos)] × 100, where V compound denotes the compound well values, V pos denotes the median value of the positive control wells, and V DMSO denotes the median value of the DMSO-only wells. Following normalization, data points were corrected using DMSO-only plates included at the beginning and end of the compound plate stack using an in-house pattern correction algorithm in order to remove background patterns, as well as other small abnormalities within the dataset ([Southall et al., 2009]). […] Efficacy is then [a inf - a 0 ]. a=a0+ainf−a0 c^n/k^n+c^n
Curve class was further converted to curve rank by combining each class with efficacy, such that good quality, efficacious curves are assigned large absolute curve rank values. […] The activity outcome was based on the PXR antagonist readout activity and a cell viability counter screen.

CYP3A4 mRNA expression = CYP3A4 mRNA expression by qRT-PCR in HepaRG cells treated with compound alone; assay type: cell-based, human; settings: 24 h, compound at its IC70 concentration, vs DMSO
Description: Fully differentiated NoSpin™ HepaRG™ cells (Lonza, Walkersville, Maryland) were seeded into 12-well collagen-coated plates (Corning) at a density of 8 × 10^5 cells/well using Williams’ E medium (ThermoFisher) supplemented with HepaRG™ thawing and plating medium supplement (Lonza), 25 U/mL penicillin, and 25 μg/mL streptomycin (Invitrogen). The cells were then placed into a 37°C and 5% CO2 incubator for 3 days including a media change before treatment. Cells were then treated with the vehicle control (final concentration of 0.1% DMSO), the positive controls, or test compounds for 24 h before harvesting.
Total RNA was extracted from the cell lysate using an RNeasy Mini kit (Qiagen) according to the manufacturer’s instructions. RNA was reverse transcribed to cDNA using a High-Capacity RNA-to-cDNA kit (Applied Biosystems). CYP3A4 and CYP2B6 mRNA expression were both measured and normalized to the glyceraldehyde-3-phosphate dehydrogenase (GAPDH) housekeeping gene. Real-time PCR was completed using a QuantStudio Real-Time PCR system (Applied Biosystems) with TaqMan probes (CYP3A4 Assay ID: Hs00604506_m1, CYP2B6 Assay ID: Hs04183483_g1, GAPDH Assay ID: Hs99999905_m1, ThermoFisher Scientific, Waltham, MA). Following amplification, induction values were calculated using the equation: Fold = 2^−ΔΔCt, where ΔCt represents the difference in number of cycles required to reach the Ct threshold between CYP3A4 or CYP2B6 and GAPDH, and ΔΔCt represents the relative change in these differences between the control (DMSO) and treatment groups. Experimental data are expressed as a mean of triplicate values ±SD. Statistical analysis was performed using one-way analysis of variance with post hoc Dunnett’s analysis. The statistical significance values were set at p < 0.05 (*), p < 0.01 (**), and p < 0.001 (***).
To overcome the previous screening limitations, we used this more physiologically relevant cell line, HepaRG cells, to run follow-up studies with the PXR antagonists identified from the primary screen which used immortalized cell lines without a metabolic component. Using HepaRG cells, the 20 potential PXR antagonists were treated for 24 h and harvested for mRNA (Supplementary Figure S1).
FIGURE 3 HepaRG cells were treated with the top 20 most promising PXR antagonists identified from the high-throughput screen. […] The concentrations for the test compounds were the IC70 values from the original NPACT screen. Real-time PCR was used to analyze the mRNA expression of CYP3A4. Each bar represents the mean ± SD in triplicate. *, p < 0.05; **, p < 0.01.

hPXR [2] = molecular target: T1, hPXR; assay: Pharmacological inhibition (IC50 shift) assay with varying rifampicin in HepG2-CYP3A4-hPXR cells; assay type: cell-based; settings: co-treated with 2 µM versus 10 µM rifampicin
Description: as §1
Each curve was co-treated with 5 μM RIF, 7.5 μM RIF, or 10 μM RIF (a well-known PXR agonist) to determine pharmacological activity. […] Each curve was generated from a combination of all data points together.

| Compound | IC70 values from the original NPACT screen (hPXR [1]) [µM] | inhibition of CYP3A4 mRNA expression (in words) (CYP3A4 mRNA expression) | decrease in potency (hPXR [2]) |
| --- | --- | --- | --- |
| CN(C)c1cc2c(cc1Sc1nc3c(N)nccc3n1CCNCC(C)(C)C)OCO2 [CUDC-305] | 0.25 | – | – |
| CCN(CC)C(=O)C(c1ccccc1)N1CCN(c2ccc(NC(=O)c3ccccc3-c3cccnc3)cc2F)CC1 (stereo not shown) [JNJ-31020028] | 10 | significantly inhibited CYP3A4 mRNA expression | – |
| CC(C)(C)NC(=O)[C@@H](c1cccnc1)N(C(=O)c1ccco1)c1ccc(C(C)(C)C)cc1 [ML 188] | 1 | – | – |
| CC1CCN(c2cc(NC(=O)c3ccccc3)ncn2)CC1 [ML 340] | 3 | – | – |
| C=C1C(=O)O[C@@H]2[C@H]1CC[C@H](C)[C@]1(CCC(=O)O1)C2(C)O (stereo partly shown) [NCGC00380135-02] | 7 | – | – |
| COC(=O)C[C@H]1C(C)(C)[C@H](OC(=O)c2ccccc2)C2CC3=C4CC(=O)O[C@@H](c5ccoc5)[C@]4(C)CCC3[C@@]1(C)C2=O (stereo partly shown) [NCGC00384964-01] | 15 | – | – |
| CC(C)(O)C1Cc2c(ccc(C(=O)CCc3ccccc3)c2O)O1 (stereo not shown) [NCGC00385629-01] | 0.8 | – | – |
| CC(C)C[C@@H](C(=O)N[C@@H](Cc1ccc(OCc2ccccc2)cc1)C(=O)NC(C)(C)C)N(C)Cc1ccc(C(C)(C)C)cc1 [PD 173212] | 3 | – | – |
| CC(C)NCCCn1c(Sc2cc3c(cc2I)OCO3)nc2c(N)ncnc21 [PU-H71] | 0.5 | significantly inhibited CYP3A4 mRNA expression | – |
| Cc1cccc2c1CC[C@H](CN1CCC(c3c(Cl)cccc3Cl)CC1)C[C@@H]2O [SB-612111] | 8 | – | – |
| COc1ccc(OC)c(-n2nnc(S(=O)(=O)c3ccc(C(C)(C)C)cc3)c2C)c1 [SPA70, 4-(4-tert-Butylphenylsulfonyl)-1-(2,5-dimethoxyphenyl)-5-methyl-1H-1,2,3-triazole] | – | – | more than 2 fold |
| Cc1ccccc1C#Cc1ccc(CCC(=O)O)cc1 [TUG-424] | 3 | – | – |
| CCCCCOc1cc2c(cc1-c1cc(/C=C/C(=O)O)ccc1O)C(C)(C)CCC2(C)C [UVI 3003] | 0.8 | generated CYP3A4 inhibition but not to a significant degree | – |
| CC[C@@H](C)Nc1cc(C(=O)N[C@H]2C[C@H]3CC[C@@H](C2)N3c2ccc(C(=O)C3CC3)cn2)c(C)cc1C(N)=O [XL-888] | 0.5 | – | – |
| COC(=O)C1=C(C)NC(COC(N)=O)=C(C(=O)OC(C)C)C1c1cccc(Cl)c1Cl (stereo not shown) [lemildipine] | 0.6 | – | – |
| c1ccc2c(Oc3nc(Nc4ccc(N5CCOCC5)cc4)c4ncn(C5CCCCC5)c4n3)cccc2c1 [purmorpharmine] | 10 | – | – |
